Series [1] concerns the target T1, amyloid (aggregated Aβ1-40) (Homo sapiens, UniProt P05067).
T1 construct: Aβ1-40 (Peptide Institute) was dissolved in phosphate buffer (pH 7.4); purchased Peptide Institute
Nature of the series: Measurement of amyloid affinity: in vitro binding test, inhibition of [125I]3′-I-BTA-0 binding. As for the experimental part:
Affinity of the present compounds with amyloid was examined by the following in vitro binding tests.
(1) Aβ1-40 (Peptide Institute) was dissolved in phosphate buffer (pH 7.4) and shaken at 37° C. for 62-72 hours, to obtain a suspension of aggregated Aβ (concentration: 1 mg/mL equivalent, hereinafter referred to as amyloid suspension in these Examples).
(3) According to the method described in a literature (Wang, Y., et al., J. Labeled Compounds Radiopharmaceut. 44, 5239 (2001)), [^125I]2-(3′-iodo-4′-aminophenyl)benzothiazole (hereinafter referred to as [^125I]3′-I-BTA-0) was prepared from a labeling precursor 2-(4′-aminophenyl)benzothiazole, and dissolved in ethanol. [^125I]sodium iodide of 12-71 MBq (10-30 μL in volume) was used for the production, to obtain [^125I]3′-I-BTA-0 of 1-22 MBq immediately after the synthesis.
(5) Samples in which [^125I]3′-I-BTA-0, each compound for evaluation and amyloid were dissolved in a 0.1% bovine serum albumin-containing phosphate buffer (pH 7.4) at final concentrations shown in Table 2 were prepared. The resulting samples were placed in each well (about 0.3 mL in volume) of a 96-well microplate.
(6) The microplate filled with the sample solutions was shaken at a given rate (400 rpm) at 22° C. for 3 hours. Then, each sample solution was filtered through a glass fiber filter (trade name: Mulutiscreen™-FC, manufactured by Millipore), to separate the [^125I3′-I-BTA-0 attached to amyloid from the [^125I]3′-I-BTA-0 free from amyloid.
(7) The glass fiber filter used for the filtration of each sample solution was washed with a 0.1% bovine serum albumin-containing phosphate buffer (pH 7.4) (0.5 mL×5), and radioactivity of the glass fiber filter was measured with an autowell gamma system (manufactured by Aloka, Type: ARC-301B).
(8) Separately, a solution containing 15 μmol/L of 6-Me-BTA-2, 400 pmol/L of [^125I]3′-I-BTA-0 and 1 μmol/L of Aβ1-40 in a 0.1% bovine serum albumin-containing phosphate buffer (pH 7.4) was prepared and subjected to the same procedures as described above in (6) and (7) to measure a radioactivity level. The measured radioactivity level was defined as the background radioactivity level, and used in the calculation of the inhibition ratio (hereinafter referred to as BG).
(9) Using the radioactivity levels measured above in (7) and (8), the inhibition ratio was determined by the following formula (1).
A graph in which values converted by probit transformation from the obtained inhibition ratios were plotted relative to logarithms of concentrations of compounds for evaluation was prepared to obtain an approximate straight line by the least square method. Using the line, the concentration of each compound for evaluation was determined, at which the radioactivity level is half of the level of the sample free from each compound for evaluation, and was defined as a 50% inhibition concentration of each compound (hereinafter referred to as IC50% value). Using the value as an indicator, affinity of each compound for evaluation with amyloid (aggregated Aβ1-40) was evaluated.

Series [2] concerns Salmonella typhimurium TA98. Description: Reverse mutation test (Ames test), TA98. It is filed as cell-based. The note with it: maximum 5000 μg/plate. The protocol:
(§1) In order to examine gene mutagenicity of Compounds 1, 2 and 4, reverse mutation test using Salmonella typhimurium TA98 and TA100 (hereinafter referred to as Ames test) was conducted.
(§2) The test was conducted without addition of S9mix and with addition of S9mix. Dimethylsulfoxide was used as a negative control. A positive control was 2-(2-furyl)-3-(5-nitro-2-furyl)acrylamide in case S9mix was not added, and 2-aminoanthracene in case S9 mix was added.
(§3) The amount of each sample to be added to the test plate was 7 dosages (geometric ratio 4) with the maximum dose being 5000 μg/plate. After a sample to be examined and a strain (TA98 or TA100), or a sample to be examined, S9mix and the strain were mixed together, the mixture was multilayered using soft agar on a medium of a test plate, and then incubated at 37° C. for 48 hours.
(§4) In order to examine gene mutagenicity of Compound 8, reverse mutation test using Salmonella typhimurium TA98 and TA100 (hereinafter referred to as Ames test) was conducted.
(§5) The test was conducted without addition of S9mix and with addition of S9mix. Dimethylsulfoxide was used as a negative control. A positive control was 2-(2-furyl)-3-(5-nitro-2-furyl)acrylamide in case S9mix was not added, and 2-aminoanthracene in case S9mix was added.
(§6) The amount of Compound 8 to be added to the test plate was 7 dosages (geometric ratio 3) with the maximum dose being 5000 μg/plate. After Compound 8 and a strain (TA98 or TA100), or Compound 8, S9mix and the strain were mixed together, the mixture was multilayered using soft agar on a medium of a test plate, and then incubated at 37° C. for 48 hours.
Background: The Ames test detects mutagens through reverse mutation in bacteria.

Series [3] has as its system Salmonella typhimurium TA100. Nature of the series: Reverse mutation test (Ames test), TA100. Particulars: maximum 5000 μg/plate. It is filed as cell-based. As for the experimental part: as §1, §2, §3, §4, §5, §6
For series [4], the system named is Salmonella typhimurium TA98 and TA100. Nature of the series: Reverse mutation test (Ames test), overall judgment. It is filed as cell-based. The note with it: TA98 and TA100, with and without S9mix. The protocol:
as §1, §2, §3, §4, §5, §6

The nature of series [5]: Partition coefficient based on the octanol extraction method (logPoctanol). The note with it: octanol / 10 mmol/L phosphate buffer (pH 7.4), radioactivity count. The protocol:
10 μL each of the prepared sample solution was respectively added to 2 mL of octanol, further, 2 mL of 10 mmol/L phosphate buffer (pH 7.4) was added, and stirred for 30 seconds. […] Using the obtained radioactivity count, log Poctanol was calculated in accordance with the equation (2).

A short description of series [6]: Transferability into brain and clearance (Examples II-11, II-12, Comparative Example II-1). Particulars: rats, intravenous injection, three animals. The protocol:
Using the Compounds 10 and 11, a time course change of radioactive accumulation in brain of male Wistar rats (7-week old) was measured.
The rats were sacrificed by bleeding from abdominal artery, and brains were removed and subjected to measurement of mass of brains and further subjected to measurement of radioactivity (hereinafter referred to as A in this Example) with a single channel analyzer (detector type: SP-20 manufactured by OHYO KOKEN KOGYO Co., Ltd.) 2, 5, 30 and 60 minutes after the injection. Also, radioactivity (hereinafter referred to as B in this Example) of the rest of the whole body was measured in the same manner as above. Using these measurement results, radioactive accumulation per unit weight of brain (% ID/g) at the respective time points were calculated in accordance with the following formula (4).
Three animals were used for experiment at the respective time points.

Series [7] is described as follows: Transferability into brain and clearance (Example I-16, Comparative Example I-7). It is filed as in vivo, male Wistar rats. The note with it: rats, intravenous injection, two animals. As for the experimental part: Using Compound 6, a time course change of radioactive accumulation in brain of male Wistar rats (7-week old) was measured.
Also, radioactivity (hereinafter referred to as B in this Example) of 0.05 mL of a 1000-fold diluted solution of the injected solution was measured in the same manner as above. Using these measurement results, radioactive accumulation per unit weight of brain (% ID/g) at the respective time points was calculated in accordance with the following formula (3).

The mark [8] stands for this setting: Table 6, 7 dosages (geometric ratio 4).
Setting [9] is: Table 8, 7 dosages (geometric ratio 3).

T1 sequence (P05067 672-711 limits assumed): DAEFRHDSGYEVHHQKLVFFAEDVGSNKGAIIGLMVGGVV

In general, IC50 refers to the concentration that inhibits the measured activity by half. `Nc1ccc(-c2nc3ccccc3s2)cc1I` [3′-I-BTA-0, 2-(3′-Iodo-4′-aminophenyl)benzothiazole, reference compound] showed an IC50 in series [1] of 10.1 nM.

With `Oc1ccc(-c2cn3cc(OCCCF)ccc3n2)cc1` [Compound 3, 6-(3′-fluoropropoxy)-2-(4′-hydroxyphenyl)imidazo[1,2-a]pyridine], the IC50 in series [1] is 54.4 nM.

Turning to `Oc1ccc(-c2cn3cc(I)cnc3n2)cc1` [Compound 4, 2-(4′-hydroxyphenyl)-6-iodoimidazo[1,2-a]pyrimidine], in series [2] (setting [8]), the “Mutagenicity, TA98, with addition of S9mix” value is listed as “Negative” and the “Mutagenicity, TA98, without addition of S9mix” value is listed as “Negative”. In series [3] (setting [8]), the “Mutagenicity, TA100, with addition of S9mix” value is given as “Negative” and the “Mutagenicity, TA100, without addition of S9mix” value is given as “Negative”. In addition, in series [4] (up to 5000 μg/plate (geometric ratio 4)), the “Judgment in the Ames test (gene mutagenicity)” value was “negative”. For the same compound, the IC50 in series [1] came to 54.1 nM.

For `Oc1ccc(-c2cn3cc([125I])ccc3n2)cc1` [Compound 5, [^125I]-2-(4′-hydroxyphenyl)-6-iodoimidazo[1,2-a]pyridine], the logPoctanol value in series [5] is 1.6.

`Cc1ccc2nc(-c3ccc(N(C)C)cc3)sc2c1` [Compound 6-Me-BTA-2, 6-methyl-2-[4′-(N,N-dimethylamino)phenyl]benzothiazole, reference compound] yielded an IC50 in series [1] of 25.4 nM.

`Oc1ccc(-c2cn3cc(I)ncc3n2)cc1` [Compound 8, 2-(4′-hydroxyphenyl)-6-iodoimidazo[1,2-a]pyrazine]: in series [2] (setting [9]), the “Mutagenicity, TA98, with addition of S9mix” value is “Negative” and the “Mutagenicity, TA98, without addition of S9mix” value is reported as “Negative”. Further, in series [3] (setting [9]), the “Mutagenicity, TA100, with addition of S9mix” value was “Negative” and the “Mutagenicity, TA100, without addition of S9mix” value is “Negative”. The “Judgment in the Ames test (gene mutagenicity)” value in series [4] (up to 5000 μg/plate (geometric ratio 3)) is “negative”.

With `Oc1ccc(-c2cn3cc([123I])cnc3n2)cc1` [Compound 9, [^123I]-2-(4′-hydroxyphenyl)-6-iodoimidazo[1,2-a]pyrimidine], in series [5], the logPoctanol value came to 1.7.

`Nc1c(/N=N/c2ccc(-c3ccc(/N=N/c4cc(S(=O)(=O)O)c5ccccc5c4N)cc3)cc2)cc(S(=O)(=O)O)c2ccccc12` [Congo-Red, reference compound] displayed an IC50 in series [1] above 1000 nM.

For `CN(C)c1ccc(-c2cn3cc([125I])ccc3n2)cc1` [[^125I]-IMPY, reference compound], the logPoctanol value in series [5] stood at 2.1.

As for `CN(C)c1ccc(-c2cn3cc([123I])ccc3n2)cc1` [^123I-IMPY, reference compound], the “Radioactive accumulation in brain per unit weight” value in series [6] (after 2 min.) worked out at 1.19 % ID/g; in series [6] (after 5 min.) it was 0.97 % ID/g; in series [6] (after 30 min.) it was 0.23 % ID/g; in series [6] (after 60 min.), 0.09 % ID/g; in series [7] (after 2 min.), 1.02 % ID/g; in series [7] (after 5 min.) it was 0.99 % ID/g. Further, the “Radioactive accumulation in brain per unit weight” value in series [7] (after 30 min.) was determined as 0.20 % ID/g; in series [7] (after 60 min.), 0.08 % ID/g.

(Values after patent publication US20100249408A1, “USE OF NOVEL COMPOUND HAVING AFFINITY FOR AMYLOID, AND PROCESS FOR PRODUCTION OF THE SAME” (NIHON MEDI-PHYSICS CO., LTD., priority 2007, published 2010).)
